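Interpolation was linear, between the two tested concentrations surrounding the appropriate level; five concentrations were tested over 48 hours in 96-well plates. GI50 is the concentration that inhibits growth by half. TGI: total growth inhibition.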
Tests used:
Assay in all cases: DTP human tumour cell line panel, 48 h
SF-539 CNS = test system: SF-539 CNS
OVCAR-5 ovarian = test system: OVCAR-5 ovarian
UACC-257 melanoma = test system: UACC-257 melanoma
K-562 leukemia = test system: K-562 leukemia
MCF7 breast = test system: MCF7 breast
PC-3 prostate = test system: PC-3 prostate
UO-31 renal = test system: UO-31 renal
NCI-H460 lung = test system: NCI-H460 lung
HS 578T breast = test system: HS 578T breast
MOLT-4 leukemia = test system: MOLT-4 leukemia

COc1ccc(N=N/C(C(=O)C(F)(F)F)=C(\O)c2ccc(Cl)cc2)cc1
GI50 (SF-539 CNS): 6.33 µM
TGI (SF-539 CNS): 39.8 µM
GI50 (OVCAR-5 ovarian): 12.5 µM
TGI (OVCAR-5 ovarian): > 100 µM
GI50 (UACC-257 melanoma): 4.57 µM
TGI (UACC-257 melanoma): 36.2 µM
GI50 (K-562 leukemia): 3.47 µM
TGI (K-562 leukemia): > 100 µM
GI50 (MCF7 breast): 4.11 µM
TGI (MCF7 breast): 37.6 µM
GI50 (PC-3 prostate): 10.4 µM
TGI (PC-3 prostate): > 100 µM
GI50 (UO-31 renal): 8.18 µM
TGI (UO-31 renal): 47.6 µM
GI50 (NCI-H460 lung): 3.77 µM
TGI (NCI-H460 lung): 27.7 µM
GI50 (HS 578T breast): 11.2 µM
TGI (HS 578T breast): 76.2 µM
GI50 (MOLT-4 leukemia): 5.09 µM
TGI (MOLT-4 leukemia): 53 µM

CCOC(=O)c1cnc2c(C)cccc2c1Nc1ccc(C(C)=O)cc1
GI50 (SF-539 CNS): 34.3 µM
TGI (SF-539 CNS): > 100 µM
GI50 (OVCAR-5 ovarian): 34.6 µM
TGI (OVCAR-5 ovarian): > 100 µM
GI50 (UACC-257 melanoma): 79.9 µM
TGI (UACC-257 melanoma): > 100 µM
GI50 (K-562 leukemia): > 100 µM
TGI (K-562 leukemia): > 100 µM
GI50 (MCF7 breast): 28 µM
TGI (MCF7 breast): > 100 µM
GI50 (PC-3 prostate): 36.6 µM
TGI (PC-3 prostate): > 100 µM
GI50 (UO-31 renal): 13.5 µM
TGI (UO-31 renal): > 100 µM
GI50 (NCI-H460 lung): 59.3 µM
TGI (NCI-H460 lung): > 100 µM
GI50 (HS 578T breast): 15.4 µM
TGI (HS 578T breast): 58.4 µM
GI50 (MOLT-4 leukemia): 43.6 µM
TGI (MOLT-4 leukemia): > 100 µM

c1cc2c(cn1)Nc1ccncc1S2
GI50 (SF-539 CNS): 33.8 µM
TGI (SF-539 CNS): > 100 µM
GI50 (OVCAR-5 ovarian): 25.2 µM
TGI (OVCAR-5 ovarian): > 100 µM
GI50 (UACC-257 melanoma): 71.5 µM
TGI (UACC-257 melanoma): > 100 µM
GI50 (K-562 leukemia): 55.4 µM
TGI (K-562 leukemia): > 100 µM
GI50 (MCF7 breast): 32.9 µM
TGI (MCF7 breast): > 100 µM
GI50 (PC-3 prostate): 41.7 µM
TGI (PC-3 prostate): > 100 µM
GI50 (UO-31 renal): 23.5 µM
TGI (UO-31 renal): > 100 µM
GI50 (NCI-H460 lung): 27.8 µM
TGI (NCI-H460 lung): > 100 µM
GI50 (HS 578T breast): 29.6 µM
TGI (HS 578T breast): > 100 µM
GI50 (MOLT-4 leukemia): 33.4 µM
TGI (MOLT-4 leukemia): > 100 µM

CC(=O)c1c(C)[nH]c(-c2nc3ccc(N4CCN(C)CC4)cc3[nH]2)c1-c1ccccc1
GI50 (SF-539 CNS): 1.47 µM
TGI (SF-539 CNS): 17.5 µM
GI50 (OVCAR-5 ovarian): 1.12 µM
TGI (OVCAR-5 ovarian): 22.9 µM
GI50 (UACC-257 melanoma): 1.46 µM
TGI (UACC-257 melanoma): 17.9 µM
GI50 (K-562 leukemia): 0.779 µM
TGI (K-562 leukemia): > 100 µM
GI50 (MCF7 breast): 0.266 µM
TGI (MCF7 breast): 13.5 µM
GI50 (PC-3 prostate): 1.04 µM
TGI (PC-3 prostate): > 100 µM
GI50 (UO-31 renal): 0.374 µM
TGI (UO-31 renal): 11.8 µM
GI50 (NCI-H460 lung): 4.24 µM
TGI (NCI-H460 lung): 31.4 µM
GI50 (HS 578T breast): 0.392 µM
TGI (HS 578T breast): 17.2 µM
GI50 (MOLT-4 leukemia): 6.47 µM
TGI (MOLT-4 leukemia): > 100 µM

O=C1NC(=NCCCc2ccccc2)S/C1=C\c1ccc2ncccc2c1
GI50 (SF-539 CNS): 4.05 µM
TGI (SF-539 CNS): 9.49 µM
GI50 (OVCAR-5 ovarian): 8.09 µM
TGI (OVCAR-5 ovarian): > 25 µM
GI50 (UACC-257 melanoma): 6.73 µM
TGI (UACC-257 melanoma): 22.9 µM
GI50 (K-562 leukemia): 9.12 µM
TGI (K-562 leukemia): > 25 µM
GI50 (MCF7 breast): 4.11 µM
TGI (MCF7 breast): 11.2 µM
GI50 (PC-3 prostate): 5.62 µM
TGI (PC-3 prostate): 15.9 µM
GI50 (UO-31 renal): 4.06 µM
TGI (UO-31 renal): 11.9 µM
GI50 (NCI-H460 lung): 4.08 µM
TGI (NCI-H460 lung): 11.8 µM
GI50 (HS 578T breast): 5.11 µM
TGI (HS 578T breast): 16 µM
GI50 (MOLT-4 leukemia): 7.31 µM
TGI (MOLT-4 leukemia): 18.9 µM

CCCCCCCCCCCC[n+]1ccc2ccccc2c1
GI50 (SF-539 CNS): 1.58 µM
TGI (SF-539 CNS): 3.22 µM
GI50 (OVCAR-5 ovarian): 1.34 µM
TGI (OVCAR-5 ovarian): 3.74 µM
GI50 (UACC-257 melanoma): 0.405 µM
TGI (UACC-257 melanoma): 1.82 µM
GI50 (K-562 leukemia): 0.247 µM
TGI (K-562 leukemia): 1.96 µM
GI50 (MCF7 breast): 0.937 µM
TGI (MCF7 breast): 2.88 µM
GI50 (PC-3 prostate): 0.219 µM
TGI (PC-3 prostate): 1.12 µM
GI50 (UO-31 renal): 1.19 µM
TGI (UO-31 renal): 3.23 µM
GI50 (NCI-H460 lung): 1.69 µM
TGI (NCI-H460 lung): 3.27 µM
GI50 (HS 578T breast): 1.54 µM
TGI (HS 578T breast): 3.88 µM
GI50 (MOLT-4 leukemia): 0.681 µM
TGI (MOLT-4 leukemia): 2.65 µM

— PubChem BioAssay (NCI)
